The values that follow come from ChEMBL document CHEMBL3044930, “Mannich base derivatives of 1,3,4-oxadiazole: synthesis and screening against Entamoeba histolytica” (Med Chem Res, 2013).

One assay concerns MCF7. Description: Cytotoxicity against Homo sapiens (human) MCF7 cells after 48 hr by MTT assay. The assay is classed as cell-based. To be noted: MCF7, 48 h. (In general: Formazan colour is commonly taken as a measure of viable cells.)
In the next assay the test system is Entamoeba histolytica. Description: Antiamoebic activity against Entamoeba histolytica HM-1:IMSS after 72 hr by eosin stain-based spectrophotometric analysis. The assay is classed as functional, organism-based.

Turning to `Fc1ccc(N2CCN(Cn3nc(-c4ccncc4)oc3=S)CC2)cc1`, the IC50 (in general, the concentration at which inhibition is half-maximal) with MCF7 was greater than 250000 nM; in the assay on Entamoeba histolytica, 245 nM. With `COc1ccccc1N1CCN(Cn2nc(-c3ccncc3)oc2=S)CC1`, the IC50 in the assay with MCF7 is greater than 250000 nM; in the assay on Entamoeba histolytica it was 1060 nM. Consider `S=c1oc(-c2ccncc2)nn1CN1CCN(c2ccccc2)CC1`, for which the IC50 in the assay with Entamoeba histolytica came out at 3470 nM.

`CCN1CCN(Cn2nc(-c3ccncc3)oc2=S)CC1`: the results for the IC50 in the assay on MCF7 and with Entamoeba histolytica were greater than 250000 nM and 327 nM, respectively.

For the compound `S=c1oc(-c2ccncc2)nn1CN1CCN(c2cccc(Cl)c2)CC1`, in the assay on Entamoeba histolytica, the IC50 stood at 2570 nM. On the same count and under the same terms, next, `S=c1oc(-c2ccncc2)nn1CN1CCN(Cc2ccccc2)CC1`: 3400 nM; `S=c1oc(-c2ccncc2)nn1CN1CCN(c2ccccn2)CC1`: 2820 nM; `S=c1oc(-c2ccncc2)nn1CN1CCN(Cc2ccc3c(c2)OCO3)CC1`: 3620 nM. Turning to `FC(F)(F)c1ccccc1N1CCN(Cn2nc(-c3ccncc3)oc2=S)CC1`, the IC50 in the assay with Entamoeba histolytica was 2870 nM. In the case of `CN1CCN(Cn2nc(-c3ccncc3)oc2=S)CC1`, half-maximal inhibition with Entamoeba histolytica (IC50) required 5110 nM.
